Test results as given in PubChem BioAssay (NCI).
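Cultured in 96-well plates, cells were exposed to test compound for 48 hours across five concentrations. GI50 marks 50% less growth. Definition used: TGI = concentration required for complete inhibition of growth.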

How the values were obtained:
Test in all cases: NCI tumour cell line growth inhibition, 48 h
[1] = tested on: NCI-H226 lung
[2] = tested on: MDA-MB-231 breast
[3] = tested on: K-562 leukemia
[4] = tested on: LOX IMVI melanoma
[5] = tested on: HL-60(TB) leukemia
[6] = tested on: NCI/ADR-RES ovarian
[7] = tested on: ACHN renal
[8] = tested on: HOP-62 NSCLC
[9] = tested on: KM12 colon
[10] = tested on: TK-10 renal
[11] = tested on: HCT-116 colon
[12] = tested on: SNB-75 CNS
[13] = tested on: BT-549 breast
[14] = tested on: SNB-19 CNS
[15] = tested on: CCRF-CEM leukemia
[16] = tested on: MALME-3M melanoma
[17] = tested on: SN12C renal
[18] = tested on: SF-268 CNS
[19] = tested on: SK-MEL-2 melanoma
[20] = tested on: OVCAR-5 ovarian
[21] = tested on: SR leukemia
[22] = tested on: COLO 205 colon
[23] = tested on: HCC-2998 colon
[24] = tested on: SF-539 CNS
[25] = tested on: MDA-MB-435
[26] = tested on: SK-MEL-5 melanoma
[27] = tested on: HCT-15 colon
[28] = tested on: NCI-H460 lung
[29] = tested on: UACC-257 melanoma
[30] = tested on: UACC-62 melanoma
[31] = tested on: OVCAR-3 ovarian
[32] = tested on: NCI-H522 lung
[33] = tested on: SK-MEL-28 melanoma
[34] = tested on: M14 melanoma
[35] = tested on: HS 578T breast
[36] = tested on: OVCAR-8 ovarian
[37] = tested on: RPMI-8226 leukemia
[38] = tested on: U251 CNS
[39] = tested on: SF-295 CNS
[40] = tested on: MOLT-4 leukemia
[41] = tested on: A549 NSCLC
[42] = tested on: MCF7 breast
[43] = tested on: HT29 colon
[44] = tested on: A498 renal
[45] = tested on: IGROV1 ovarian
[46] = tested on: T-47D breast
[47] = tested on: PC-3 prostate
[48] = tested on: EKVX NSCLC
[49] = tested on: 786-0 renal
[50] = tested on: SW-620 colon
[51] = tested on: SK-OV-3 ovarian
[52] = tested on: DU-145 prostate
[53] = tested on: HOP-92 NSCLC
[54] = tested on: UO-31 renal
[55] = tested on: OVCAR-4 ovarian
[56] = tested on: NCI-H23 lung

Question: How did the GI50 [1] turn out when `COc1ccc(C(=O)c2cc(C)c(OC)c(C)c2)cc1OC(=O)CCl` was run?
Answer: Its GI50 is 4.27 µM.

Question: And the TGI [1]?
Answer: The TGI was greater than 100 µM.

Question: What about the GI50 [2] of the same compound?
Answer: The GI50 was less than 0.0112 µM.

Question: And the TGI [2]?
Answer: The TGI was greater than 100 µM.

Question: And the GI50 [3]?
Answer: Its GI50 is less than 0.01 µM.

Question: And the TGI [3]?
Answer: Its TGI is greater than 100 µM.

Question: What about the GI50 [4] of the same compound?
Answer: The GI50 was less than 0.01 µM.

Question: What about the TGI [4] of the same compound?
Answer: Its TGI is greater than 100 µM.

Question: And the GI50 [5]?
Answer: Its GI50 is less than 0.01 µM.

Question: What about the TGI [5] of the same compound?
Answer: The TGI was less than 0.01 µM.

Question: And the GI50 [6]?
Answer: The GI50 was less than 0.01 µM.

Question: What about the TGI [6] of the same compound?
Answer: The TGI was greater than 63.5 µM.

Question: And the GI50 [7]?
Answer: The GI50 was less than 0.01 µM.

Question: And the TGI [7]?
Answer: The TGI was 77.5 µM.

Question: What about the GI50 [8] of the same compound?
Answer: The GI50 was less than 0.0191 µM.

Question: What about the TGI [8] of the same compound?
Answer: Its TGI is greater than 100 µM.

Question: And the GI50 [9]?
Answer: Its GI50 is less than 0.01 µM.

Question: What about the TGI [9] of the same compound?
Answer: Its TGI is greater than 65.3 µM.

Question: What about the GI50 [10] of the same compound?
Answer: The GI50 was 34.7 µM.

Question: What about the TGI [10] of the same compound?
Answer: The TGI was greater than 100 µM.

Question: And the GI50 [11]?
Answer: The GI50 was less than 0.0111 µM.

Question: And the TGI [11]?
Answer: The TGI was greater than 100 µM.

Question: And the GI50 [12]?
Answer: The GI50 was less than 0.01 µM.

Question: What about the TGI [12] of the same compound?
Answer: Its TGI is greater than 100 µM.

Question: And the GI50 [13]?
Answer: The GI50 was less than 0.01 µM.

Question: What about the TGI [13] of the same compound?
Answer: Its TGI is 40.5 µM.

Question: And the GI50 [14]?
Answer: Its GI50 is less than 0.01 µM.

Question: And the TGI [14]?
Answer: Its TGI is greater than 100 µM.

Question: And the GI50 [15]?
Answer: Its GI50 is less than 0.01 µM.

Question: What about the TGI [15] of the same compound?
Answer: The TGI was greater than 100 µM.

Question: And the GI50 [16]?
Answer: Its GI50 is 13.1 µM.

Question: What about the TGI [16] of the same compound?
Answer: Its TGI is 59.6 µM.

Question: And the GI50 [17]?
Answer: The GI50 was less than 0.01 µM.

Question: What about the TGI [17] of the same compound?
Answer: The TGI was greater than 100 µM.

Question: And the GI50 [18]?
Answer: Its GI50 is less than 0.011 µM.

Question: And the TGI [18]?
Answer: Its TGI is greater than 100 µM.

Question: And the GI50 [19]?
Answer: Its GI50 is less than 0.01 µM.

Question: What about the TGI [19] of the same compound?
Answer: The TGI was greater than 100 µM.

Question: And the GI50 [20]?
Answer: The GI50 was 1.71 µM.

Question: What about the TGI [20] of the same compound?
Answer: Its TGI is greater than 100 µM.

Question: What about the GI50 [21] of the same compound?
Answer: The GI50 was less than 0.01 µM.

Question: What about the TGI [21] of the same compound?
Answer: Its TGI is greater than 100 µM.

Question: What about the GI50 [22] of the same compound?
Answer: The GI50 was 0.751 µM.

Question: What about the TGI [22] of the same compound?
Answer: Its TGI is 18.8 µM.

Question: What about the GI50 [23] of the same compound?
Answer: The GI50 was 0.0391 µM.

Question: And the TGI [23]?
Answer: The TGI was greater than 79.2 µM.

Question: What about the GI50 [24] of the same compound?
Answer: The GI50 was less than 0.01 µM.

Question: What about the TGI [24] of the same compound?
Answer: Its TGI is less than 0.01 µM.

Question: And the GI50 [25]?
Answer: Its GI50 is less than 0.01 µM.

Question: And the TGI [25]?
Answer: Its TGI is less than 0.01 µM.

Question: And the GI50 [26]?
Answer: The GI50 was less than 0.01 µM.

Question: And the TGI [26]?
Answer: The TGI was 0.459 µM.

Question: And the GI50 [27]?
Answer: The GI50 was less than 0.01 µM.

Question: And the TGI [27]?
Answer: The TGI was greater than 100 µM.

Question: And the GI50 [28]?
Answer: The GI50 was less than 0.01 µM.

Question: What about the TGI [28] of the same compound?
Answer: Its TGI is 18.5 µM.

Question: And the GI50 [29]?
Answer: The GI50 was 19 µM.

Question: And the TGI [29]?
Answer: Its TGI is greater than 100 µM.

Question: What about the GI50 [30] of the same compound?
Answer: Its GI50 is 0.0402 µM.

Question: And the TGI [30]?
Answer: The TGI was greater than 100 µM.

Question: What about the GI50 [31] of the same compound?
Answer: Its GI50 is less than 0.01 µM.

Question: And the TGI [31]?
Answer: The TGI was 1.08 µM.

Question: What about the GI50 [32] of the same compound?
Answer: Its GI50 is less than 0.01 µM.

Question: What about the TGI [32] of the same compound?
Answer: Its TGI is less than 0.01 µM.

Question: What about the GI50 [33] of the same compound?
Answer: The GI50 was 0.0396 µM.

Question: And the TGI [33]?
Answer: Its TGI is greater than 100 µM.

Question: And the GI50 [34]?
Answer: Its GI50 is less than 0.01 µM.

Question: And the TGI [34]?
Answer: The TGI was 22.8 µM.

Question: And the GI50 [35]?
Answer: The GI50 was less than 0.01 µM.

Question: And the TGI [35]?
Answer: The TGI was 98.5 µM.

Question: And the GI50 [36]?
Answer: Its GI50 is less than 0.01 µM.

Question: What about the TGI [36] of the same compound?
Answer: Its TGI is greater than 100 µM.

Question: What about the GI50 [37] of the same compound?
Answer: Its GI50 is less than 0.01 µM.

Question: And the TGI [37]?
Answer: The TGI was 25.3 µM.

Question: And the GI50 [38]?
Answer: The GI50 was less than 0.01 µM.

Question: And the TGI [38]?
Answer: The TGI was greater than 100 µM.

Question: What about the GI50 [39] of the same compound?
Answer: Its GI50 is less than 0.0229 µM.

Question: What about the TGI [39] of the same compound?
Answer: Its TGI is greater than 86 µM.

Question: And the GI50 [40]?
Answer: The GI50 was less than 0.0158 µM.

Question: What about the TGI [40] of the same compound?
Answer: Its TGI is greater than 100 µM.

Question: And the GI50 [41]?
Answer: The GI50 was 0.0845 µM.

Question: And the TGI [41]?
Answer: Its TGI is greater than 100 µM.

Question: And the GI50 [42]?
Answer: The GI50 was less than 0.01 µM.

Question: And the TGI [42]?
Answer: The TGI was greater than 100 µM.

Question: And the GI50 [43]?
Answer: The GI50 was 1.06 µM.

Question: What about the TGI [43] of the same compound?
Answer: The TGI was 14.8 µM.

Question: What about the GI50 [44] of the same compound?
Answer: Its GI50 is 1.45 µM.

Question: And the TGI [44]?
Answer: The TGI was 9.51 µM.

Question: What about the GI50 [45] of the same compound?
Answer: The GI50 was 0.0352 µM.

Question: What about the TGI [45] of the same compound?
Answer: The TGI was greater than 100 µM.

Question: And the GI50 [46]?
Answer: Its GI50 is 10.5 µM.

Question: And the TGI [46]?
Answer: The TGI was 67.9 µM.

Question: And the GI50 [47]?
Answer: The GI50 was less than 0.021 µM.

Question: And the TGI [47]?
Answer: Its TGI is greater than 100 µM.

Question: What about the GI50 [48] of the same compound?
Answer: The GI50 was 0.0928 µM.

Question: And the TGI [48]?
Answer: The TGI was greater than 100 µM.

Question: And the GI50 [49]?
Answer: The GI50 was 0.0763 µM.

Question: What about the TGI [49] of the same compound?
Answer: The TGI was greater than 100 µM.

Question: And the GI50 [50]?
Answer: The GI50 was less than 0.01 µM.

Question: And the TGI [50]?
Answer: Its TGI is greater than 100 µM.

Question: And the GI50 [51]?
Answer: The GI50 was less than 0.0238 µM.

Question: And the TGI [51]?
Answer: The TGI was greater than 100 µM.

Question: And the GI50 [52]?
Answer: Its GI50 is less than 0.01 µM.

Question: What about the TGI [52] of the same compound?
Answer: The TGI was greater than 100 µM.

Question: And the GI50 [53]?
Answer: Its GI50 is 12.4 µM.

Question: And the TGI [53]?
Answer: The TGI was greater than 96.1 µM.

Question: What about the TGI [54] of the same compound?
Answer: The TGI was greater than 100 µM.

Question: What about the GI50 [55] of the same compound?
Answer: Its GI50 is 0.866 µM.

Question: And the TGI [55]?
Answer: The TGI was greater than 100 µM.

Question: What about the GI50 [56] of the same compound?
Answer: Its GI50 is less than 0.0293 µM.

Question: What about the TGI [56] of the same compound?
Answer: The TGI was greater than 100 µM.
